Data as given in US10968188B2, “Benzothiazol compounds and methods using the same for treating neurodegenerative disorders” (1ST Biotherapeutics, Inc., priority 2017, dated 2021).

Experiments:
lipid peroxidation = assay: Lipid peroxidation in hippocampus homogenates of Aβ25-35 induced AD mice; format: in vivo; conditions: once daily oral dosing of 3 mg/kg and 10 mg/kg
Source text: Y-maze test as a behavioral test was used to assess memory function and the willingness of rodents to explore new environments 10 Days after ICV injection of oligomeric Aβ25-35 peptide, the hippocampus was dissected out. And lipid peroxidation level was quantified in the hippocampus homogenates. ICV injection of oligomeric Aβ25-35 peptide induced lipid peroxidation, a marker for oxidative stress. […] (FIG. 7)

[1] = system: α-synuclein PFF induced PD mice; assay: Pole test in α-synuclein PFF induced PD mice; format: in vivo
[2] = Oral dose pharmacokinetic study in mice
Aβ25-35 induced AD mice [3] = assay: Step-through passive avoidance (STPA) test in Aβ25-35 induced AD mice; format: in vivo; conditions: orally once daily for 10 days; Example 4 1, 3 and 10 mg/kg, nilotinib 3 mg/kg
Aβ25-35 induced AD mice [4] = assay: Y-maze spontaneous alternation in Aβ25-35 induced AD mice; format: in vivo; conditions: orally once daily for 10 days; Example 4 1, 3 and 10 mg/kg, nilotinib 3 mg/kg

PK profile in mice [2]	SMILES	lipid peroxidation in hippocampus (lipid peroxidation)	increased pole climb down time (sec) by α-synuclein PFF injection ([1]; 0.3, 1, 3 and 10 mg/kg orally once daily for 5 months)	contextual long-term memory deficits (STPA) (Aβ25-35 induced AD mice [3])	deficits of alternation behavior (spatial working memory, Y-maze) (Aβ25-35 induced AD mice [4])	pole climb down time ([1]; 10 mg/kg orally once daily for 5 months)
good PK profiles	Cc1ccncc1-c1ccc2nc(NC(=O)[C@@H]3C[C@@H]3F)sc2c1 [Example 4]	completely inhibited	recovered by treatment of Example 4 in a dose-dependent manner	very significantly and fully alleviated	very significantly and fully alleviated	
	Cc1cn(-c2cc(NC(=O)c3ccc(C)c(Nc4nccc(-c5cccnc5)n4)c3)cc(C(F)(F)F)c2)cn1 [Nilotinib, nilotinib, reference compound]				partially alleviated	slight improvement
